Source: patent publication US20200147233A1, “METHOD FOR KILLING TUMOR CELLS AND COMPOSITION USED THEREFOR” (PhotoQ3 Inc., priority 2018, published 2020)

Key:
[1] = tested on: HSQ-89 cell line xenograft; test: Antitumor effects of combined use of IT-Robo1 and PCI on HSQ-89 cell line xenograft mice; type: in vivo
Protocol: A supernatant was aspirated from a 10 cmφ dish, in which the HSQ-89 cell line was cultured, and was then washed with D-PBS (Dulbecco's phosphate buffer). Thereafter, 1 ml of 2.5 g/l trypsin/1 mM EDTA solution was added to the resultant, and the obtained mixture was then left at rest for several minutes in a CO2 incubator. After confirming that the cells were peeled from the bottom surface of the dish, 9 ml of the culture solution was added, and centrifugation was then performed at 1,000 rpm at 4° C. for 5 minutes. After that, a supernatant was aspirated, 10 ml of PBS was then added thereto, and the obtained mixture was then centrifuged at 1,000 rpm at 4° C. for 5 minutes. Thereafter, a supernatant was aspirated, 10 ml of PBS was added thereto, and the number of cells was then counted. Again, 10 ml of PBS was added to the cells, and the obtained mixture was then centrifuged at 1,000 rpm at 4° C. for 5 minutes. Thereafter, a supernatant was aspirated, and PBS was added thereto to a cell density of 2×10^7 cell/ml. Basement Membrane Matrix Gel (Corning, N.Y.) that had been cooled on ice was added in an equal amount, and 2×10^6 cells/200 μl were then collected using a 23G needle and a 1-ml syringe that had been cooled on ice. Subsequently, the collected cells were subcutaneously administered (SC) to the right shoulder of 6-weel-old male BALB/cSlc-nu/nu mice to produce xenograft mice (cancer-bearing mice). The size of a tumor was calculated according to the following equation:
Tumor size=π/6×Height (mm)×Width (mm)×Depth (mm) […]
With reference to “Guidelines for Proper Conduct of Animal Experiments (2006)” established by Science Council of Japan, a tumor with a size of 1,000 mm^3 or more, or a drastic reduction in body weight (a reduction of 25% or more of body weight for a week) was set at endpoint, and the mice were euthanized by cervical dislocation. The measurement of a tumor size and evaluation of the body weight were carried out over time, and at the endpoint, the size and weight of the tumor and the body weight were evaluated.

[2] = tested on: SAS cells; test: Cytotoxicity of AlPcS2a itself (photosensitizer tolerance); type: cell-based; settings: AlPcS2a alone with light
Protocol: For the purpose of increasing IT-Robo 1 internalization efficiency, the present inventors have used AlPcS2a, which forms reactive oxygen species as a result of light irradiation and induces destruction of endosome. At first, the cytotoxicity of AlPcS2a itself was examined, and the optimal concentration to various cells was then determined.

aluminum phthalocyanine disulfonic acid [AlPcS2a]
ulcer and crust formation at irradiated site ([1]; about two days after the irradiation): an ulcer was formed at the cancer protrusion site | edema at irradiated site ([1]; after local irradiation with 650 nm, for several days from the next day, gradually reduced): edema was found at the irradiated sites and the surrounding portions thereof | time until crust fell off after crust formation ([1]; mouse, in vivo): 10 days | sensitivity of cells to photosensitizer treatment [2]: weak to the treatment with a photosensitizer
